Laboratory results: ChEMBL document CHEMBL4196011, “The lead optimization of the polyamine conjugate of flavonoid with a naphthalene motif: Synthesis and biological evaluation” (Eur J Med Chem, 2018)
The source made the active and inactive calls. The rule behind the calls is not given here.

Tests used:
[1] = system: HepG2; test: Induction of apoptosis in human HepG2 cells assessed as necrotic cells at 7.5 uM after 8 hrs by Annexin V-FITC/propidium iodide staining-based flow cytometry (reference value: 0.40%); assay type: functional
[2] = system: HepG2; test: Induction of apoptosis in human HepG2 cells assessed as increase in p53 protein expression after 48 hrs by immunofluorescence staining-based high content screening assay; assay type: functional, cell-based
[3] = system: HepG2; test: Induction of apoptosis in human HepG2 cells assessed as decrease in nuclear volume after 48 hrs by Hoechst 33342 staining-based assay; assay type: functional, cell-based
[4] = system: HepG2; test: Induction of apoptosis in human HepG2 cells assessed as late apoptotic cells at 7.5 uM after 8 hrs by Annexin V-FITC/propidium iodide staining-based flow cytometry (reference value: 0.88%); assay type: functional
[5] = system: HepG2; test: Induction of autophagy in human HepG2 cells assessed as upregulation of beclin1 expression at 5 uM in presence of autophagy inhibitor 3-MA by Western blot analysis; assay type: functional, cell-based
[6] = system: HepG2; test: Induction of apoptosis in human HepG2 cells assessed as necrotic cells at 7.5 uM after 24 hrs by Annexin V-FITC/propidium iodide staining-based flow cytometry (reference value: 0.12%); assay type: functional
[7] = system: HepG2; test: Induction of apoptosis in human HepG2 cells assessed as viable cells at 2.5 uM after 36 hrs by Annexin V-FITC/propidium iodide staining-based flow cytometry (reference value: 96.6%); assay type: functional; conditions: HepG2, 36 h, read-out: Activity
[8] = system: HepG2; test: Induction of apoptosis in human HepG2 cells assessed as viable cells at 2.5 uM after 8 hrs by Annexin V-FITC/propidium iodide staining-based flow cytometry (reference value: 97.43%); assay type: functional; conditions: HepG2, 8 h, read-out: Activity
[9] = system: HepG2; test: Induction of apoptosis in human HepG2 cells assessed as viable cells at 5 uM after 8 hrs by Annexin V-FITC/propidium iodide staining-based flow cytometry (reference value: 97.43%); assay type: functional; conditions: HepG2, 8 h, read-out: Activity
[10] = system: HepG2; test: Induction of apoptosis in human HepG2 cells assessed as early apoptotic cells at 5 uM after 48 hrs by Annexin V-FITC/propidium iodide staining-based flow cytometry (reference value: 1.30%); assay type: functional
[11] = system: HepG2; test: Induction of apoptosis in human HepG2 cells assessed as upregulation of active caspase 8 level after 48 hrs by immunofluorescence staining-based high content screening assay; assay type: functional, cell-based
[12] = Cytotoxicity against human QSG7701 cells up to 15 uM after 48 hrs by MTT assay; assay type: cell-based
[13] = Toxicity in iv dosed Kunming mouse assessed as maximum tolerated dose administered for 7 consecutive days; assay type: organism-based; conditions: in vivo
[14] = system: K562; test: Antiproliferative activity against human K562 cells after 48 hrs by MTT assay; assay type: functional, cell-based; conditions: K562, 48 h
[15] = system: HepG2; test: Induction of apoptosis in human HepG2 cells assessed as late apoptotic cells at 2.5 uM after 48 hrs by Annexin V-FITC/propidium iodide staining-based flow cytometry (reference value: 0.95%); assay type: functional
[16] = system: HepG2; test: Induction of apoptosis in human HepG2 cells assessed as necrotic cells at 7.5 uM after 48 hrs by Annexin V-FITC/propidium iodide staining-based flow cytometry (reference value: 0.08%); assay type: functional
[17] = system: HepG2; test: Induction of apoptosis in human HepG2 cells assessed as late apoptotic cells at 7.5 uM after 36 hrs by Annexin V-FITC/propidium iodide staining-based flow cytometry (reference value: 1.08%); assay type: functional
[18] = Drug localization in mitochondria of human HepG2 cells at 7.5 uM after 8 hrs by MitoTracker Green dye-based confocal fluorescence microscopic analysis; assay type: ADME; conditions: hepg2, 8 h
[19] = system: HepG2; test: Induction of apoptosis in human HepG2 cells assessed as viable cells at 5 uM after 48 hrs by Annexin V-FITC/propidium iodide staining-based flow cytometry (reference value: 96.67%); assay type: functional; conditions: HepG2, 48 h, read-out: Activity
[20] = biological target: c-Jun N-terminal kinase, JNK (Homo sapiens) (UniProt P45983+P53779+P45984); test: Induction of JNK phosphorylation in human HepG2 cells after 48 hrs by immunofluorescence staining-based high content screening assay; assay type: cell-based
[21] = system: HepG2; test: Induction of apoptosis in human HepG2 cells assessed as late apoptotic cells at 2.5 uM after 36 hrs by Annexin V-FITC/propidium iodide staining-based flow cytometry (reference value: 1.08%); assay type: functional
[22] = system: HepG2; test: Induction of autophagy in human HepG2 cells assessed as upregulation of beclin1 expression at 5 uM by Western blot analysis; assay type: functional, cell-based
[23] = system: HepG2; test: Induction of apoptosis in human HepG2 cells assessed as necrotic cells at 2.5 uM after 24 hrs by Annexin V-FITC/propidium iodide staining-based flow cytometry (reference value: 0.12%); assay type: functional
[24] = system: HepG2; test: Induction of apoptosis in human HepG2 cells assessed as early apoptotic cells at 5 uM after 36 hrs by Annexin V-FITC/propidium iodide staining-based flow cytometry (reference value: 2.08%); assay type: functional
[25] = system: HepG2; test: Induction of apoptosis in human HepG2 cells assessed as early apoptotic cells at 2.5 uM after 36 hrs by Annexin V-FITC/propidium iodide staining-based flow cytometry (reference value: 2.08%); assay type: functional
[26] = system: HepG2; test: Induction of apoptosis in human HepG2 cells assessed as early apoptotic cells at 5 uM after 24 hrs by Annexin V-FITC/propidium iodide staining-based flow cytometry (reference value: 2.07%); assay type: functional
[27] = system: HepG2; test: Induction of apoptosis in human HepG2 cells assessed as late apoptotic cells at 5 uM after 36 hrs by Annexin V-FITC/propidium iodide staining-based flow cytometry (reference value: 1.08%); assay type: functional
[28] = Drug localization in nucleus of human HepG2 cells at 7.5 uM after 8 hrs by Hoechst 33342 staining-based HCS analysis; assay type: ADME, subcellular; conditions: hepg2, 8 h
[29] = system: HepG2; test: Induction of apoptosis in human HepG2 cells assessed as late apoptotic cells at 2.5 uM after 24 hrs by Annexin V-FITC/propidium iodide staining-based flow cytometry (reference value: 0.88%); assay type: functional
[30] = system: HepG2; test: Induction of apoptosis in human HepG2 cells assessed as early apoptotic cells at 2.5 uM after 48 hrs by Annexin V-FITC/propidium iodide staining-based flow cytometry (reference value: 1.30%); assay type: functional
[31] = system: HepG2; test: Induction of apoptosis in human HepG2 cells assessed as necrotic cells at 5 uM after 24 hrs by Annexin V-FITC/propidium iodide staining-based flow cytometry (reference value: 0.12%); assay type: functional
[32] = system: Mus musculus; test: Toxicity in Kunming mouse xenografted with […] H22 cells assessed as effect on spleen weight index at 30 mg/kg, iv administered for 7 consecutive days; assay type: organism-based; conditions: in vivo
[33] = system: Mus musculus; test: Toxicity in Kunming mouse xenografted with […] H22 cells assessed as effect on lung weight index at 30 mg/kg, iv administered for 7 consecutive days; assay type: organism-based; conditions: in vivo
[34] = system: HepG2; test: Induction of apoptosis in human HepG2 cells at 5 uM preincubated cells with autophagy inhibitor 3-MA for 2 hrs followed by compound addition measured after 48 hrs by Annexin V-FITC/propidium iodide staining-based flow cytometry relative to control; assay type: functional; set-up: scale not given: the % may be the effect or the level left
[35] = system: HepG2; test: Induction of apoptosis in human HepG2 cells assessed as necrotic cells at 2.5 uM after 48 hrs by Annexin V-FITC/propidium iodide staining-based flow cytometry (reference value: 0.08%); assay type: functional
[36] = system: Mus musculus; test: Toxicity in Kunming mouse xenografted with […] H22 cells assessed as effect on heart weight index at 30 mg/kg, iv administered for 7 consecutive days; assay type: organism-based; conditions: in vivo

COc1ccc2cc(-c3oc4c(CNCCCCN)cccc4c(=O)c3OC)ccc2c1Br.Cl.Cl
Activity [1]: 0.05%
Activity [2]: Dose-dependent effect
Activity [3]: Dose-dependent effect
Activity [4]: 3.38%
Activity [5]: inactive
Activity [6]: 4.51%
viability at 2.5 µM [7]: 84%
viability at 2.5 µM [8]: 96.1%
viability at 5 µM [9]: 93%
Activity [10]: 26.36%
Activity [11]: Dose-dependent effect
Activity [12]: Non-Toxic
MTD at 7 days [13]: 50 mg/kg
IC50 [14]: 13.4 µM
Activity [15]: 3.85%
Activity [16]: 0.17%
Activity [17]: 6.3%
Drug uptake [18]: Active
viability at 5 µM [19]: 60.4%
Activity [20]: Dose-dependent effect
Activity [21]: 5.89%
Activity [22]: Active
Activity [23]: 0%
Activity [24]: 16.72%
Activity [25]: 6.24%
Activity [26]: 15.76%
Activity [27]: 2.15%
Drug uptake [28]: Not Active
Activity [29]: 0.88%
Activity [30]: 21.8%
Activity [31]: 0.05%
Activity [32]: Non-Toxic
Activity [33]: Non-Toxic
Activity [34]: 53.07%
Activity [35]: 0.29%
Activity [36]: Non-Toxic
